{"source": "patent US20250287953A1", "about": "(CHEMICEUTICAL INC., priority 2021, published 2025)", "origin": "cited, not measured here", "data": [{"substance": "zinc pyrithione", "values": [{"measurement": "acute oral toxicity to rodents LD50 (50% lethal dose)", "value": 269, "unit": "mg/kg"}]}]}
